Tests used:
NHE3 [1] = molecular target: T1, NHE3 (UniProt P48764); experiment: Cell-based NHE3 activity under transient conditions (BCECF-AM intracellular pH, FLIPR); design: species or system Rat or Human; details: opossum kidney cells expressing NHE3, read-out: Cell-based NHE3 inhibition IC50 (uM) under transient conditions
T1 sequence (P48764 1-834): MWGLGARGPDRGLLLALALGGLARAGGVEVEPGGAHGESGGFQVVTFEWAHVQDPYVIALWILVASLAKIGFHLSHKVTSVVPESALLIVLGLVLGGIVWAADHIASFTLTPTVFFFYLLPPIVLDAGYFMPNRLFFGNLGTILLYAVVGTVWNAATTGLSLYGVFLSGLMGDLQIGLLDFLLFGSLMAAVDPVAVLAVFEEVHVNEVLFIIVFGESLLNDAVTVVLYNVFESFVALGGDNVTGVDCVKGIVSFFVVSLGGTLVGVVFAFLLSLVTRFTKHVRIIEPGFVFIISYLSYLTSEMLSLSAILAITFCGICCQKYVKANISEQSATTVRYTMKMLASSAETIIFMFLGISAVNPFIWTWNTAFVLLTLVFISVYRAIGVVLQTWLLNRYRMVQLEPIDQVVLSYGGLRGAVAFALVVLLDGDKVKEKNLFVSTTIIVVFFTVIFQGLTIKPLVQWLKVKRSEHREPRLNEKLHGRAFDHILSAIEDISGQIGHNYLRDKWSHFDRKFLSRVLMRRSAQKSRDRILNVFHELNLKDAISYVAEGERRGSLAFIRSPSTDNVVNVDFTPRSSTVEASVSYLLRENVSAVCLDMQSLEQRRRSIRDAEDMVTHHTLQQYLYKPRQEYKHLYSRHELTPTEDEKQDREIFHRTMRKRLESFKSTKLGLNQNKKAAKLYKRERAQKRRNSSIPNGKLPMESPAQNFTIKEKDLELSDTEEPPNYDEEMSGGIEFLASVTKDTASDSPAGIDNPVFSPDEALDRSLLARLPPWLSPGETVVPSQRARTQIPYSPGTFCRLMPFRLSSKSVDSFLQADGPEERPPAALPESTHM
Excerpt: (§1) Opossum kidney (OK) cells were obtained from ATCC and cultured and expanded according to its instructions. OK monoclonal stable cell lines expressing the Rat NHE3 (Gene Bank registration number: M85300) protein and OK monoclonal stable cell lines expressing the Human NHE3 (Gene Bank registration number: NM_004174.1) protein were constructed by lentivirus infection.
The general procedure of the cell-based NHE3 activity experiments under transient conditions (transient inhibition) was based on an adaptation method of the pH-sensitive dye method originally reported by Tisen (Proc. Natl. Acad. Sci. USA) (1984) 81(23):7436-7440) to measure rat NHE3-mediated Na+-dependent reverse H+ transport, and was optimized according to the instructions “Measuring Intracellular pH With the FLIPR and FLIPR 384 Fluorometric Imaging Plate Reader Systems” published by Molecular Devices. The specific method was: Rat NHE3 OK monoclonal cells or Human NHE3 OK monoclonal cells were inoculated into 384-well plates and grew overnight. The medium was aspirated from the wells and the cells were washed twice with FLIPR buffer (Hank's BSS 1×, 20 mM HEPES, 1% BSA) followed by incubation with FLIPR buffer (Hank's BSS 1×, 20 mM HEPES, 1% BSA) containing […] BCECF-AM (Invitrogen) for 45 min at room temperature. Subsequently, […] of 200 mM NH4Cl-HEPES buffer (Hank's BSS 1×, 20 mM HEPES, 200 mM NH4Cl) was added and the cells were incubated for 15-20 minutes at room temperature. Cells were washed twice with 20 mM NH4Cl-HEPES buffer (Hank's BSS 1×, 20 mM HEPES, 20 mM NH4Cl). NHE3-mediated pH sensitization in cells was normalized by addition of containing 0.4 mM amiloride (EIPA) and […] test compound or Na-HEPES buffer (100 mM NaCl, 50 mM HEPES, 10 mM glucose, 5 mM KCl, 2 mM CaCl2), 1 mM MgCl2, pH 7.4) and monitoring of BCECF-AM fluorescence at λem 535 nm excitated by λex 440 nm and λex 490 nm respectively. Ratio=fluorescence value (λex 490 nm)/fluorescence value (λex 440 nm) was set, the average value of the Ratio difference between the end time and the start time between the duplicate wells was calculated, the average value and the concentration value of the compound were drawn, and Graphpad Prism software was used to estimate IC50 value.

NHE3 [2] = molecular target: T1, NHE3; experiment: Cell-based NHE3 activity under persistent conditions (60 min pre-incubation, compound removed); design: species or system Rat or Human; details: opossum kidney cells expressing NHE3, read-out: Cell-based NHE3 inhibition IC50 (uM) under persistent conditions
Excerpt: as §1
The general procedure of the cell-based NHE3 activity assay under persistent conditions (persistent inhibition) was: Rat NHE3 OK monoclonal cells or Human NHE3 OK monoclonal cells were inoculated into 384-well plates and grew overnight. The medium was aspirated from the wells and the cells were washed twice with FLIPR buffer (Hank's BSS 1×, 20 mM HEPES, 1% BSA) followed by the addition of Na-HEPES buffer containing […] test compound (100 mM NaCl, 50 mM HEPES, 10 mM glucose, 5 mM KCl, 2 mM CaCl2, 1 mM MgCl2, pH 7.4) and incubated for 60 minutes at room temperature. The compounds were aspirated from the wells and incubated with FLIPR buffer (Hank's BSS 1×, 20 mM HEPES, 1% BSA) containing […] BCECF-AM (Invitrogen) for 45 minutes at room temperature. Subsequently, […] of 200 mM NH4Cl-HEPES buffer (Hank's BSS 1×, 20 mM HEPES, 200 mM NH4Cl) was added and incubated for 15-20 minutes at room temperature. The cells were washed twice with 20 mM NH4Cl-HEPES buffer (Hank's BSS 1×, 20 mM HEPES, 20 mM […]). […] Ratio=fluorescence value (λex 490 nm)/fluorescence value (λex 440 nm) was set, the average value of the Ratio difference between the end time and the start time between the duplicate wells was calculated, the average value and the concentration value of the compound were drawn, and the dose-response-inhibition (four parameters) equation was used to estimate EC50 value by GraphpadPrism.

CN1Cc2c(Cl)cc(Cl)cc2C(c2ccc3cn[nH]c3c2)C1 (stereo not shown) [Intermediate D1-7]
IC50 (NHE3 [1]; intermediates): 1.44 µM

CN1Cc2c(Cl)cc(Cl)cc2C(c2ccc3cc[nH]c(=O)c3c2)C1 (stereo not shown) [Intermediate B5-6]
IC50 (NHE3 [1]; intermediates): 1.69 µM

CN1Cc2c(Cl)cc(Cl)cc2C(c2ccc3c(c2)C(=O)N(CCOCCOCCNC(=O)NC2CCC(NC(=O)NCCOCCOCCN4Cc5ccc(C6CN(C)Cc7c(Cl)cc(Cl)cc76)cc5C4=O)CC2)C3)C1 (stereo not shown) [Embodiment H1]
IC50 (NHE3 [2]): 0.04 µM
IC50 (NHE3 [1]; embodiment compounds): 0.91 µM

CN1Cc2c(Cl)cc(Cl)cc2C(c2ccc3c(c2)C(=O)N(CCOCCOCCNC(=O)NCCCCNC(=O)NCCOCCOCCN2CCc4ccc(C5CN(C)Cc6c(Cl)cc(Cl)cc65)cc4C2=O)CC3)C1 (stereo not shown) [Embodiment B3]
IC50 (NHE3 [2]): 0.41 µM
IC50 (NHE3 [1]; embodiment compounds): 0.77 µM

CN1Cc2c(Cl)cc(Cl)cc2C(c2ccc3c(c2)S(=O)(=O)N(CCOCCOCCNC(=O)NCCCCNC(=O)NCCOCCOCCN2CCc4ccc(C5CN(C)Cc6c(Cl)cc(Cl)cc65)cc4S2(=O)=O)CC3)C1 (stereo not shown) [Embodiment C1]
IC50 (NHE3 [2]): 0.59 µM
IC50 (NHE3 [1]; embodiment compounds): 0.22 µM

CN1Cc2c(Cl)cc(Cl)cc2C(c2ccc3c(c2)CN(CCOCCOCCNC(=O)NCCCCNC(=O)NCCOCCOCCN2Cc4cc(C5CN(C)Cc6c(Cl)cc(Cl)cc65)ccc4C2=O)C3=O)C1 (stereo not shown) [Embodiment B4]
IC50 (NHE3 [2]): 0.45 µM
IC50 (NHE3 [1]; embodiment compounds): 0.93 µM

CN1Cc2c(Cl)cc(Cl)cc2C(c2ccc3c(c2)C(=O)N(CCOCCOCCNC(=O)O[C@@H]2COC4C2OC[C@H]4OC(=O)NCCOCCOCCN2Cc4ccc(C5CN(C)Cc6c(Cl)cc(Cl)cc65)cc4C2=O)C3)C1 (stereo partly shown) [Embodiment G1]
IC50 (NHE3 [2]): 0.1 µM
IC50 (NHE3 [1]; embodiment compounds): 0.93 µM

CN1Cc2c(Cl)cc(Cl)cc2C(c2ccc3ccn(CCOCCOCCNC(=O)NCCCCNC(=O)NCCOCCOCCn4ccc5ccc(C6CN(C)Cc7c(Cl)cc(Cl)cc76)cc5c4=O)c(=O)c3c2)C1 (stereo not shown) [Embodiment B5]
IC50 (NHE3 [2]): 0.57 µM
IC50 (NHE3 [1]; embodiment compounds): 0.23 µM

CN1Cc2c(Cl)cc(Cl)cc2C(c2ccc3c(c2)C(=O)N(CCOCCOCCOCCNC(=O)NCCCCNC(=O)NCCOCCOCCCN2Cc4ccc(C5CCCc6ccc(Cl)cc65)cc4C2=O)C3)C1 (stereo not shown) [Embodiment B6]
IC50 (NHE3 [2]): 0.04 µM
IC50 (NHE3 [1]; embodiment compounds): 1.05 µM

CN1Cc2c(Cl)cc(Cl)cc2C(c2cccc3c2CN(CCOCCOCCNC(=O)NCCCCNC(=O)NCCOCCOCCN2Cc4c(cccc4C4CN(C)Cc5c(Cl)cc(Cl)cc54)C2=O)C3=O)C1 (stereo not shown) [Embodiment B2]
IC50 (NHE3 [1]; embodiment compounds): 2.05 µM

CN1Cc2c(Cl)cc(Cl)cc2C(c2ccc3c(c2)C(=O)N(CCOCCOCCNC(=O)[C@H](O)[C@H](O)[C@@H](O)[C@@H](O)C(=O)NCCOCCOCCN2Cc4ccc(C5CN(C)Cc6c(Cl)cc(Cl)cc65)cc4C2=O)C3)C1 (stereo partly shown) [Embodiment J4]
IC50 (NHE3 [2]): 0.05 µM
IC50 (NHE3 [1]; embodiment compounds): 0.25 µM

CN1Cc2c(Cl)cc(Cl)cc2C(c2ccc3c(c2)C(=O)N(CCOCCOCCOCCNC(=O)CCC(N)(CCC(=O)NCCOCCOCCOCCN2Cc4ccc(C5CN(C)Cc6c(Cl)cc(Cl)cc65)cc4C2=O)CCC(=O)NCCOCCOCCOCCN2Cc4ccc(C5CN(C)Cc6c(Cl)cc(Cl)cc65)cc4C2=O)C3)C1 (stereo not shown) [Embodiment I3]
IC50 (NHE3 [2]): 0.13 µM
IC50 (NHE3 [1]; embodiment compounds): 0.19 µM

CN1Cc2c(Cl)cc(Cl)cc2C(c2ccc3c(c2)CNC3=O)C1 (stereo not shown) [Intermediate B4-6]
IC50 (NHE3 [1]; intermediates): 0.79 µM

CN1Cc2c(Cl)cc(Cl)cc2C(c2ccc3c(c2)C(=O)N(CCOCCOCCOCCNC(=O)CN(CCN(CC(=O)O)CC(=O)NCCOCCOCCOCCN2Cc4ccc(C5CN(C)Cc6c(Cl)cc(Cl)cc65)cc4C2=O)CC(=O)O)C3)C1 (stereo not shown) [Embodiment F2]
IC50 (NHE3 [2]): 0.08 µM
IC50 (NHE3 [1]; embodiment compounds): 0.62 µM

CN1Cc2c(Cl)cc(Cl)cc2C(c2ccc3c(c2)C(=O)N(CCOCCOCCOCCNC(=O)[C@H](O)[C@@H](O)C(=O)NCCOCCOCCOCCN2Cc4ccc(C5CN(C)Cc6c(Cl)cc(Cl)cc65)cc4C2=O)C3)C1 (stereo partly shown) [Embodiment J2]
IC50 (NHE3 [2]): 0.05 µM
IC50 (NHE3 [1]; embodiment compounds): 0.32 µM

CN1Cc2c(Cl)cc(Cl)cc2C(c2ccc3c(c2)C(=O)N(CCOCCOCCNC(=O)CN(CCN(CC(=O)O)CC(=O)NCCOCCOCCN2Cc4ccc(C5CN(C)Cc6c(Cl)cc(Cl)cc65)cc4C2=O)CC(=O)O)C3)C1 (stereo not shown) [Embodiment F1]
IC50 (NHE3 [2]): 0.64 µM
IC50 (NHE3 [1]; embodiment compounds): 0.91 µM

CN1Cc2c(Cl)cc(Cl)cc2C(c2ccc3c(c2)S(=O)(=O)NCC3)C1 (stereo not shown) [Intermediate C1-11]
IC50 (NHE3 [1]; intermediates): 1.24 µM

CN1Cc2c(Cl)cc(Cl)cc2C(c2ccc3c(c2)C(=O)N(CCOCCOCCNC(=O)Nc2ccc(NC(=O)NCCOCCOCCN4Cc5ccc(C6CN(C)Cc7c(Cl)cc(Cl)cc76)cc5C4=O)cc2)C3)C1 (stereo not shown) [Embodiment H2]
IC50 (NHE3 [2]): 0.06 µM
IC50 (NHE3 [1]; embodiment compounds): 0.48 µM

CN1Cc2c(Cl)cc(Cl)cc2C(c2ccc3c(c2)S(=O)(=O)N(CCOCCOCCNC(=O)NCCCCNC(=O)NCCOCCOCCN2C=Cc4ccc(C5CN(C)Cc6c(Cl)cc(Cl)cc65)cc4S2(=O)=O)C=C3)C1 (stereo not shown) [Embodiment E1]
IC50 (NHE3 [2]): 0.05 µM
IC50 (NHE3 [1]; embodiment compounds): 0.06 µM

CN1Cc2c(Cl)cc(Cl)cc2C(c2ccc3cn(CCOCCOCCNC(=O)NCCCCNC(=O)NCCOCCOCCn4cc5ccc(C6CN(C)Cc7c(Cl)cc(Cl)cc76)cc5n4)nc3c2)C1 (stereo not shown) [Embodiment D1-P1]
IC50 (NHE3 [2]): 0.02 µM
IC50 (NHE3 [1]; embodiment compounds): 0.28 µM

CN1Cc2c(Cl)cc(Cl)cc2C(c2ccc3c(c2)S(=O)(=O)N(CCOCCOCCNC(=O)NCCCCNC(=O)NCCOCCOCCN2Cc4ccc(C5CN(C)Cc6c(Cl)cc(Cl)cc65)cc4S2(=O)=O)C3)C1 (stereo not shown) [Embodiment A1]
IC50 (NHE3 [2]): 0.5 µM
IC50 (NHE3 [1]; embodiment compounds): 0.43 µM

CN1Cc2c(Cl)cc(Cl)cc2C(c2cccc3c2CNC3=O)C1 (stereo not shown) [Intermediate B2-6]
IC50 (NHE3 [1]; intermediates): 0.17 µM

CN1Cc2c(Cl)cc(Cl)cc2C(c2ccc3c(c2)S(=O)(=O)NC3)C1 (stereo not shown) [Intermediate A1-13]
IC50 (NHE3 [1]; intermediates): 0.6 µM

CN1Cc2c(Cl)cc(Cl)cc2C(c2cccc3c2CN(CCOCCOCCNC(=O)NCCCCNC(=O)NCCOCCOCCN2Cc4c(C5CN(C)Cc6c(Cl)cc(Cl)cc65)cccc4S2(=O)=O)S3(=O)=O)C1 (stereo not shown) [Embodiment A2]
IC50 (NHE3 [1]; embodiment compounds): 3.14 µM

CN1Cc2c(Cl)cc(Cl)cc2C(c2ccc3c(c2)C(=O)NC3)C1 (stereo not shown) [Intermediate B1-6]
IC50 (NHE3 [1]; intermediates): 0.53 µM

CN1Cc2c(Cl)cc(Cl)cc2C(c2cccc3c2CNS3(=O)=O)C1 (stereo not shown) [Intermediate A2-13]
IC50 (NHE3 [1]; intermediates): 1.63 µM

CN1Cc2c(Cl)cc(Cl)cc2C(c2ccc3c(c2)S(=O)(=O)NC=C3)C1 (stereo not shown) [Intermediate E1-9]
IC50 (NHE3 [1]; intermediates): 3.17 µM

— patent US20240082406A1, “BENZOHETEROCYCLE SUBSTITUTED TETRAHYDROISOQUINOLINE COMPOUND” (SHANGHAI JEMINCARE PHARMACEUTICAL CO., LTD, priority 2020, published 2024)
